Laboratory results as given in ChEMBL document CHEMBL1201862, “PubChem BioAssay data set” (2004).
“And” between values parts separate entries of the source, which are not always exact repeats. Identical values can stand only once.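 Test compounds were applied to cells in 96-well plates for 48 hours at 5 doses. GI50: concentration for 50% inhibition of growth.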 The source made the active and inactive calls. Rule as the data show it: active = GI50 up to about 1.1 µM and inactive = higher.

Assays:
Assay in all cases: NCI anticancer screen, dose series, 48 h
786-0 = tested on: 786-0
RPMI-8226 = tested on: RPMI-8226
A498 = tested on: A498
HOP-62 = tested on: HOP-62
UO-31 = tested on: UO-31
CAKI-1 = tested on: CAKI-1
UACC-62 = tested on: UACC-62
SNB-75 = tested on: SNB-75
HCT-116 = tested on: HCT-116
MOLT-4 = tested on: MOLT-4
SN12C = tested on: SN12C
NCI-H23 = tested on: NCI-H23
NCI-H226 = tested on: NCI-H226
HOP-92 = tested on: HOP-92
SNB-19 = tested on: SNB-19
SW-620 = tested on: SW-620
NCI-H522 = tested on: NCI-H522

SMILES	GI50 (786-0)	GI50 (RPMI-8226)	GI50 (A498)	GI50 (HOP-62)	GI50 (UO-31)	GI50 (CAKI-1)	GI50 (UACC-62)	GI50 (SNB-75)	GI50 (HCT-116)	GI50 (MOLT-4)	GI50 (SN12C)	GI50 (NCI-H23)	GI50 (NCI-H226)	GI50 (HOP-92)	GI50 (SNB-19)	GI50 (SW-620)	GI50 (NCI-H522)
COC(=O)C(C(=O)C(=O)Nc1cccc(O)c1)c1nc2ccc(Cl)cc2nc1O (stereo not drawn)	> 100 µM (inactive)	> 100 µM (inactive)	> 100 µM (inactive)	> 100 µM (inactive)	> 100 µM (inactive)	> 100 µM (inactive)	> 100 µM (inactive)	84.1 µM (inactive)	> 100 µM (inactive)	> 100 µM (inactive)	> 100 µM (inactive)	> 100 µM (inactive)	71.6 µM (inactive)	59 µM (inactive)	> 100 µM (inactive)	> 100 µM (inactive)	–
O=S(=O)(O)C1=C2Sc3ccccc3N=C2c2ccccc2C1	17.5 µM (inactive)	7.48 µM (inactive)	18.6 µM (inactive)	20.1 µM (inactive)	19.4 µM (inactive)	20.1 µM (inactive)	13.2 µM (inactive)	18.5 µM (inactive)	15.2 µM (inactive)	4.88 µM (inactive)	13.8 µM (inactive)	16.4 µM (inactive)	20.3 µM (inactive)	10.3 µM (inactive)	22.4 µM (inactive)	15.3 µM (inactive)	16.7 µM (inactive)
COC(=O)C(=O)C(C(=O)C(=O)Nc1cccc(C(C)=O)c1)c1nc2ccccc2nc1O (stereo not drawn)	> 100 µM (inactive)	–	> 100 µM (inactive)	–	> 100 µM (inactive)	> 100 µM (inactive)	> 100 µM (inactive)	> 100 µM (inactive)	–	> 100 µM (inactive)	–	> 100 µM (inactive)	> 100 µM (inactive)	> 100 µM (inactive)	> 100 µM (inactive)	> 100 µM (inactive)	> 100 µM (inactive)
Oc1cc(-c2ccccn2)nc2ccc(Cl)cc12	72.9 µM (inactive)	18.2 µM (inactive)	–	40.3 µM (inactive)	36.1 µM (inactive)	–	28.7 µM (inactive)	18.8 µM (inactive)	–	53.7 µM (inactive)	48 µM (inactive)	29.5 µM (inactive)	–	> 100 µM (inactive)	> 100 µM (inactive)	19.8 µM (inactive)	7.35 µM (inactive)
CC(c1ccccc1)N1CC(C)(c2ccccc2)N(O)C(c2ccccc2)C1C (stereo not drawn)	5.92 µM (inactive)	3.75 µM (inactive)	18 µM (inactive)	15.5 µM (inactive)	3.23 µM (inactive)	–	–	6.03 µM (inactive)	3.38 µM (inactive)	3.47 µM (inactive)	–	8.04 µM (inactive)	–	2.21 µM (inactive)	5.92 µM (inactive)	12.1 µM (inactive)	6.4 µM (inactive)
Cc1cc2c(=O)cc(-c3ccc(C(F)(F)F)cc3)oc2c(C(=O)O)c1C	> 100 µM (inactive)	> 100 µM (inactive)	–	–	> 100 µM (inactive)	> 100 µM (inactive)	> 100 µM (inactive)	> 100 µM (inactive)	> 100 µM (inactive)	> 100 µM (inactive)	> 100 µM (inactive)	> 100 µM (inactive)	> 100 µM (inactive)	–	> 100 µM (inactive)	> 100 µM (inactive)	> 100 µM (inactive)
COC(=O)CCC1CCc2c(OC)ccc(OC)c2C1=O (stereo not drawn)	> 100 µM (inactive)	> 100 µM (inactive)	> 10 µM (inactive)	> 100 µM (inactive)	> 100 µM (inactive)	–	> 100 µM (inactive)	> 100 µM (inactive)	–	> 100 µM (inactive)	> 100 µM (inactive)	> 100 µM (inactive)	–	–	> 100 µM (inactive)	> 100 µM (inactive)	> 100 µM (inactive)
COC(=O)C12C3C4C1C1C2C3C41C(=O)OC(C)(C)C (stereo not drawn)	> 100 µM (inactive)	> 49.2 µM (inactive)	> 100 µM (inactive)	> 100 µM (inactive)	> 100 µM (inactive)	> 100 µM (inactive)	> 100 µM (inactive)	> 100 µM (inactive)	26.7 µM (inactive)	> 100 µM (inactive)	> 100 µM (inactive)	> 100 µM (inactive)	> 100 µM (inactive)	> 100 µM (inactive)	> 100 µM (inactive)	> 36.2 µM (inactive)	> 100 µM (inactive)
OCC(O)C(OC1OC(CO)C(O)C(O)C1O)c1nn(-c2ccc(Cl)cc2)c2nc3cc(Cl)c(Cl)cc3nc12 (stereo not drawn)	> 100 µM (inactive)	> 100 µM (inactive)	> 100 µM (inactive)	> 100 µM (inactive)	> 100 µM (inactive)	–	> 100 µM (inactive)	> 100 µM (inactive)	> 100 µM (inactive)	> 100 µM (inactive)	> 100 µM (inactive)	> 100 µM (inactive)	–	–	> 100 µM (inactive)	–	> 100 µM (inactive)
N#CC12Cc3ccc4c(c3-c3cccc(c31)CCN2C(=O)c1ccccc1)OCO4 (stereo not drawn)	71.6 µM (inactive)	> 100 µM (inactive)	68.4 µM (inactive)	> 100 µM (inactive)	> 100 µM (inactive)	–	> 100 µM (inactive)	34.7 µM (inactive)	> 100 µM (inactive)	> 100 µM (inactive)	> 100 µM (inactive)	> 100 µM (inactive)	> 100 µM (inactive)	36.2 µM (inactive)	> 100 µM (inactive)	> 100 µM (inactive)	> 10 µM (inactive)
[N-]=[N+]=NC1C2CC3CC(C2)CC1C3 (stereo not drawn)	> 100 µM (inactive)	> 100 µM (inactive)	> 100 µM (inactive)	> 100 µM (inactive)	> 100 µM (inactive)	> 100 µM (inactive)	> 100 µM (inactive)	> 100 µM (inactive)	> 100 µM (inactive)	> 100 µM (inactive)	> 100 µM (inactive)	> 100 µM (inactive)	> 100 µM (inactive)	> 100 µM (inactive)	> 100 µM (inactive)	> 100 µM (inactive)	> 100 µM (inactive)
Clc1ccc(OCCSCCCCCCCCCCSCCOc2ccc(Cl)cc2)cc1	> 100 µM (inactive)	> 100 µM (inactive)	> 100 µM (inactive)	> 100 µM (inactive)	> 100 µM (inactive)	> 100 µM (inactive)	> 100 µM (inactive)	> 100 µM (inactive)	–	> 100 µM (inactive)	> 100 µM (inactive)	> 100 µM (inactive)	> 100 µM (inactive)	> 100 µM (inactive)	> 100 µM (inactive)	> 100 µM (inactive)	> 100 µM (inactive)
O=C(Nc1ccc(S(=O)(=O)N[C@@H](C(=O)O)c2ccccc2)cc1)c1ccc(F)cc1	> 100 µM (inactive)	> 100 µM (inactive)	> 100 µM (inactive)	–	> 100 µM (inactive)	> 100 µM (inactive)	> 100 µM (inactive)	> 100 µM (inactive)	–	> 100 µM (inactive)	> 100 µM (inactive)	> 100 µM (inactive)	–	> 100 µM (inactive)	> 100 µM (inactive)	> 100 µM (inactive)	> 100 µM (inactive)
O/N=C/c1cc2c(cc1Br)OCO2	> 100 µM (inactive)	> 100 µM (inactive)	> 100 µM (inactive)	> 100 µM (inactive)	> 100 µM (inactive)	> 100 µM (inactive)	> 100 µM (inactive)	> 100 µM (inactive)	> 100 µM (inactive)	> 100 µM (inactive)	> 100 µM (inactive)	> 100 µM (inactive)	> 100 µM (inactive)	–	> 100 µM (inactive)	> 100 µM (inactive)	> 100 µM (inactive)
COc1cc([C@@H]2c3cc4c(cc3[C@@H](NC(=O)c3cccc([N+](=O)[O-])c3)C3COC(=O)[C@@H]32)OCO4)cc(OC)c1O (stereo partly drawn)	0.202 µM (active)	0.452 µM (active)	–	0.0398 µM (active)	3.89 µM (inactive)	0.237 µM (active)	0.499 µM (active)	1.31 µM (inactive)	1.5 µM (inactive)	0.0145 µM (active)	0.211 µM (active)	0.189 µM (active)	0.127 µM (active)	0.63 µM (active)	0.366 µM (active)	0.509 µM (active)	–
Cc1cccc(C)c1NC(=O)C(=O)Cc1nc2ccccc2s1	> 100 µM (inactive)	> 100 µM (inactive)	> 100 µM (inactive)	> 100 µM (inactive)	> 100 µM (inactive)	> 100 µM (inactive)	> 100 µM (inactive)	27.5 µM (inactive)	> 100 µM (inactive)	–	> 100 µM (inactive)	> 100 µM (inactive)	> 100 µM (inactive)	> 100 µM (inactive)	> 100 µM (inactive)	> 100 µM (inactive)	> 100 µM (inactive)
CSC1CC2C(CC1(C)O)C2(C)C (stereo not drawn)	> 100 µM (inactive)	> 100 µM (inactive)	> 100 µM (inactive)	> 100 µM (inactive)	> 100 µM (inactive) and 65 µM (inactive)	> 100 µM (inactive)	> 100 µM (inactive)	–	> 100 µM (inactive)	–	> 100 µM (inactive)	> 100 µM (inactive)	–	–	> 100 µM (inactive)	> 100 µM (inactive)	–
CN1CCCC2[C@@H]3CCC4=C(O)C(=O)CC[C@]4(C)C3CC[C@@]21C (stereo partly drawn)	> 100 µM (inactive)	> 100 µM (inactive)	> 100 µM (inactive)	> 100 µM (inactive)	> 100 µM (inactive)	> 100 µM (inactive)	> 100 µM (inactive)	> 100 µM (inactive)	> 100 µM (inactive)	> 100 µM (inactive)	> 100 µM (inactive)	> 100 µM (inactive)	> 100 µM (inactive)	> 100 µM (inactive)	> 100 µM (inactive)	> 100 µM (inactive)	> 100 µM (inactive)
